Patent publication US9415034B2, “Inhibitors and enhancers of uridine diphosphate-glucuronosyltransferase 2B (UGT2B)” (NATIONAL DEFENSE MEDICAL CENTER, priority 2005, dated 2016)
Several values for one entry are separate records, joined by “and”; a condition that tells them apart may be missing. Identical values can stand only once. Like-named read-outs stand apart in the source and are kept apart here.

Legend:
[1] = in vivo; cited from earlier work
[2] = in vivo; conditions: male, Sprague-Dawley, rat, serum, po
[3] = in vivo; conditions: male, Sprague-Dawley, rat, serum, iv, 1 mg/Kg
[4] = SD rat, intravenous nalbuphine, with or without capillarisin, Mean ± SE, n = 6
[5] = SD rat
[6] = oral nalbuphine 100 mg/Kg, with or without capillarisin 4 mg/Kg, Mean ± SE, n = 6

Oc1ccc2c3c1O[C@H]1[C@@H](O)CC[C@@]4(O)[C@@H](C2)N(CC2CCC2)CC[C@]314 [Nalbuphine, nalbuphine]
half life through the excretion of liver [1]: 5 h | Cmax ([2]; 100 mg/Kg): 79.3 ± 18 ng/mL | Tmax ([2]; 100 mg/Kg): 1.62 h | AUC(0-t) ([2]; 100 mg/kg): 357 ng·h/mL | CL/F ([2]; 100 mg/kg): 350 ± 62.9 L/h/kg | Cmax ([2]; 100 mg/kg): 79 ± 18 ng/mL | MRT ([2]; 100 mg/kg): 8.27 h | half-life ([2]; 100 mg/kg): 5.53 ± 1.03 h | AUC(0-t) [3]: 28.8 ng·h/mL | Cmax [3]: 154 ± 30 ng/mL | MRT [3]: 0.983 h | half-life [3]: 1.28 ± 0.483 h | AUC(total) [4]: 1909 ± 330 ng·min/mL | CL/F [4]: 50.6 ± 14.1 L/h/kg | k [4]: 0.016 ± 0.004 min⁻¹ | AUC(total) ([4]; listed as nalbuphine): 7135 ± 1218 ng·min/mL | AUC(total) [5, 6]: 24356 ± 8865 ng·min/mL | k [5, 6]: 0.0027 ± 0.0007 min⁻¹ | absolute bio-availability of orally administered nalbuphine ([5]; oral nalbuphine with or without capillarisin): 5% and 12.759±4.64%
